Reference: US20230303544A1, “LMO2 PROTEIN INHIBITORS” (UNIVERSITY OF OXFORD, priority 2020, published 2023)
“Also recorded” adds a separate entry of the source.

Experiments:
scFv-LMO2 = target: T1, scFv-LMO2 (Homo sapiens, UniProt P25791); assay: Photoaffinity labelling (PAL) pulldown; assay type: binding; conditions: 20 μM Abd-L26, UV light, avidin beads
T1 construct: made in house; host or cells: E. coli C41 (DE3)
T1 sequence (P25791 1-158): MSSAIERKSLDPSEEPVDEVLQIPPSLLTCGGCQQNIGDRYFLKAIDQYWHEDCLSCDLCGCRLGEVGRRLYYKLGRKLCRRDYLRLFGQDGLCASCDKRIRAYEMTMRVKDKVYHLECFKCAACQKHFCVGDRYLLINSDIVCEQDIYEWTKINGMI
Method: 20 μM of Abd-L26 with or without 100 μM of Abd-L9 (competitor) are added in a final volume of 400 μL of PBS with 40 μg of purified protein of interest (scFv-LMO2). The same samples are prepared for the no UV controls. The samples are incubated for 25 minutes at RT. The samples to be crosslinked are put into ice and under the UV lamp for crosslinking for 1 hour. The no UV controls are kept on ice. During the 1 hour of crosslinking, the agarose monomeric avidin beads (Cat #20228, Thermofisher) are washed twice with PBS. After the crosslink, 20 μL of washed beads are added in all the samples (crosslinked and non-crosslinked) and incubated for 2 hours at 4° C. on a roller. 2 hours later, wash the beads three times with 400 μL of PBS. The samples are finally denatured with 50 μL of 2× loading buffer with BME added directly on the beads (and boiled at 100° C. for 5 minutes) and loaded for a western blot analysis.

[1] = target: T2, LMO2-iDAb LMO2dm3 interaction (Homo sapiens, UniProt P25791); assay: LMO2-iDAb LMO2dm3 BRET assay; assay type: cell-based; conditions: BRET dose response, HEK293T cells, 0.01-50 μM, 22 h
T2 construct: LMO2 cDNA was cloned into the pEF-RLuc8-MCS and pEF-MCS-RLuc8 plasmids; expressed in transfected cells; host or cells: HEK293T
T2 sequence (P25791 1-158): T1 sequence (P25791 1-158)
Method: (§1) For all BRET experiments (titration curves and competition assays) 650,000 HEK293T were seeded in each well of a 6 well plates. After 24 hours at 37° C., cells were transfected with a total of 1.6 μg of DNA mix, containing the donor+acceptor±competitor plasmids, using Lipofectamine 2000 transfection reagent (Thermo-Fisher). In dose response competition experiments, competitors were transfected with the following amount of DNA: 0.1; 0.5 and 1 μg. In single dose competition experiments, competitors were transfected with […] of DNA. Cells were detached 24 hours later, washed with PBS and seeded in a white 96-well plate (clear bottom, PerkinElmer, Cat #6005181) in OptiMEM no phenol red medium complemented with 4% FBS and cells were incubated for an additional 20-24 hours at 37° C. before the BRET assay reading. A detailed BRET protocol is provided by Bery and Rabbitts, (2019).
Compounds were prepared in 100% DMSO at 10 mM. For BRET competition assays, cells were treated with the indicated compounds at concentration of 1 (or 5), 10 and 20 μM for 22 h. For BRET-based dose response experiments, cells were treated with compounds at concentration of 0.01, 0.1, 1, 4, 10, 25 and 50 μM for 22 h. The compounds were diluted in the BRET medium: OptiMEM no phenol red (Life Technologies) supplemented with 4% FBS and with a final concentration of 0.2% DMSO.
(§2) BRET2 signal was determined immediately after injection of coelenterazine 400a substrate (10 μM final) to cells (Cayman Chemicals), using a CLARIOstar instrument (BMG Labtech) with a luminescence module. Total GFP^2 fluorescence was detected with excitation and emission peaks set at 405 nm and 515 nm respectively. Total RLuc8 luminescence was measured with the Luminescence 400-700 nm-wavelength filter.
The BRET signal or BRET ratio corresponds to the light emitted by the GFP^2 acceptor constructs (515 nm±30) upon addition of coelenterazine 400a divided by the light emitted by the RLuc8 donor constructs (410 nm±80). The background signal is subtracted from that BRET ratio using the donor-only negative control where only the RLuc8 fusion plasmid is transfected into the cells. The normalized BRET ratio is the BRET ratio normalized to a negative control (iDAb control or DMSO control) during a competition assay. Total GFP^2 and RLuc8 signals were used to control the protein expression from each plasmid.

[2] = target: T3, LMO2-iDAb LMO2 (unmutated iDAb) interaction (Homo sapiens, UniProt P25791); assay: LMO2-iDAb LMO2 (unmutated iDAb) BRET assay; assay type: cell-based; conditions: BRET dose response
T3 construct: LMO2 cDNA was cloned into the pEF-RLuc8-MCS and pEF-MCS-RLuc8 plasmids; expressed in transfected cells; host or cells: HEK293T
T3 sequence (P25791 1-158): T1 sequence (P25791 1-158)
Method: as §1
Compounds were prepared in 100% DMSO at 10 mM. […]
as §2, with “filter. […]” for “filter.”

Row | IC50 [1] | concentration at which LMO2-iDAb LMO2 interaction is inhibited [2] | SMILES | photo-crosslinking to LMO2 protein (pulldown, Western blot) (scFv-LMO2)
1 |  |  | O=C(CCCC[C@H]1SC[C@H]2NC(=O)N[C@H]21)NCCOCCOCC(=O)Nc1ccc(NC(=O)c2coc(N3CCN(Cc4ccc(C(=O)c5ccccc5)cc4)CC3)n2)cc1 [Abd-L26, 2-(4-(4-benzoylbenzyl)piperazin-1-yl)-N-(4-(2-(2-(2-(5-((3aR,4R,6aS)-2-oxohexahydro-1H-thieno[3,4-d]imidazol-4-yl)pentanamido)ethoxy)ethoxy)acetamido)phenyl)oxazole-4-carboxamide] | observed a biotin labelled protein; also recorded: confirmed binding to LMO2 protein
2 | 6.8 µM | above 25 μM | COc1cccc(CN2CCN(c3nc(C(=O)Nc4ccc(OC)nc4)cs3)CC2)c1 [Abd-L22, 2-(4-(3-methoxybenzyl)piperazin-1-yl)-N-(6-methoxypyridin-3-yl)thiazole-4-carboxamide] | 
